Source: ChEMBL document CHEMBL3627650, “Design, synthesis, and evaluation of new endomorphin analogs with enhanced central antinociception after peripheral administration” (Bioorg Med Chem Lett, 2015)
The source made the active and inactive calls. The rule behind the calls is not given here.

Assays:
Mus musculus [1] = experiment: Antinociceptive activity in mouse assessed as inhibition of tail flick at 2 to 20 nmol, icv measured up to 30 mins relative to control; type: functional
Mus musculus [2] = experiment: Antinociceptive activity in mouse assessed as inhibition of tail flick at 2 to 20 nmol, icv measured after 30 mins; type: functional, organism-based
Mus musculus [3] = experiment: Antinociceptive activity in mouse acute phase inflammatory pain model assessed as inhibition of formalin-induced licking/biting behavior at 4 mg/kg, iv; type: functional, organism-based
Mus musculus [4] = experiment: Antinociceptive activity in mouse prolonged tonic phase inflammatory pain model assessed as inhibition of formalin-induced licking/biting behavior at 4 mg/kg, iv; type: functional, organism-based
Mus musculus [5] = experiment: Antinociceptive activity in mouse assessed as inhibition of tail flick at 4 mg/kg, iv measured at 5 to 60 mins; type: functional, organism-based
Mu-type opioid receptor [6] = biological target: T1, Mu-type opioid receptor (Homo sapiens, UniProt P35372); experiment: Displacement of [3H]-DAMGO from mu opioid receptor (unknown origin) transfected in HEK293 cells; type: cell-based
[7] = biological target: Delta-type opioid receptor (Homo sapiens, UniProt P41143); experiment: Displacement of [3H]-DPDPE from delta opioid receptor (unknown origin) transfected in HEK293 cells; type: cell-based
Homo sapiens = species: Homo sapiens; experiment: Selectivity ratio of Ki for delta opioid receptor (unknown origin) to Ki for mu opioid receptor (unknown origin)
Mu-type opioid receptor [8] = biological target: T1, Mu-type opioid receptor; experiment: Agonist activity at mu opioid receptor (unknown origin) transfected in HEK293 cells assessed as inhibition of forskolin-stimulated cAMP production; type: functional, cell-based
Mus musculus [9] = experiment: Antinociceptive activity in icv dosed mouse assessed as inhibition of tail flick measured at 5 to 60 mins; type: functional; settings: for ED50: central
Mus musculus [10] = experiment: Antinociceptive activity in mouse assessed as inhibition of tail flick at 2 to 20 nmol, icv; type: functional, organism-based; settings: TDE = time-dependent effect
Mus musculus [11] = experiment: Antinociceptive activity in mouse assessed as inhibition of tail flick at 20 nmol, icv in presence of opioid receptor antagonist naloxone; type: functional, organism-based
Mus musculus [12] = experiment: Antinociceptive activity in iv dosed mouse assessed as inhibition of tail flick measured at 5 to 60 mins; type: functional, organism-based
Mus musculus [13] = experiment: Antinociceptive activity in mouse assessed as inhibition of tail flick at 16 mg/kg, iv measured at 5 to 60 mins relative to control; type: functional
Mus musculus [14] = experiment: Antinociceptive activity in mouse assessed as inhibition of tail flick at 4 to 16 mg/kg, iv measured at 60 mins relative to control; type: functional
Mus musculus [15] = experiment: Antinociceptive activity in mouse assessed as inhibition of tail flick at 16 mg/kg, iv in presence of opioid receptor antagonist naloxone; type: functional, organism-based
Mus musculus [16] = experiment: Antinociceptive activity in mouse assessed as inhibition of tail flick at 16 mg/kg, iv in presence of opioid receptor antagonist naloxone methiodide; type: functional, organism-based
Mus musculus [17] = experiment: Antinociceptive activity in iv dosed mouse acute phase inflammatory pain model assessed as inhibition of formalin-induced licking/biting behavior; type: functional, organism-based
Mus musculus [18] = experiment: Antinociceptive activity in iv dosed mouse prolonged tonic phase inflammatory pain model assessed as inhibition of formalin-induced licking/biting behavior; type: functional, organism-based
Mus musculus [19] = experiment: Antinociceptive activity in mouse acute phase inflammatory pain model assessed as inhibition of formalin-induced licking/biting behavior at 16 mg/kg, iv in presence of opioid receptor antagonist naloxone; type: functional, organism-based
Mus musculus [20] = experiment: Antinociceptive activity in mouse prolonged tonic phase inflammatory pain model assessed as inhibition of formalin-induced licking/biting behavior at 16 mg/kg, iv in presence of opioid receptor antagonist naloxone; type: functional, organism-based

T1 sequence (P35372 whole entry): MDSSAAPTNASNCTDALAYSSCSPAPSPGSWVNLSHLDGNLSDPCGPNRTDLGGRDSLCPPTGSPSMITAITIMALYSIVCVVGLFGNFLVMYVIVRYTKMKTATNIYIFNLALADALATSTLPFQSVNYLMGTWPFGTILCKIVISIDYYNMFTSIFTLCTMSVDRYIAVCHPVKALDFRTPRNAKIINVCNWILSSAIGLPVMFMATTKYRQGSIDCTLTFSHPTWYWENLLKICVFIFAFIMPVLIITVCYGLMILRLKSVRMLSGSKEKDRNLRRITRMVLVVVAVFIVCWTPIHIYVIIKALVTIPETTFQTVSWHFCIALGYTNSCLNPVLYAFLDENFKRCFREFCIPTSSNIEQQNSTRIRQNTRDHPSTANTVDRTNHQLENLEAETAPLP
Delta-type opioid receptor, sequence (P41143 whole entry): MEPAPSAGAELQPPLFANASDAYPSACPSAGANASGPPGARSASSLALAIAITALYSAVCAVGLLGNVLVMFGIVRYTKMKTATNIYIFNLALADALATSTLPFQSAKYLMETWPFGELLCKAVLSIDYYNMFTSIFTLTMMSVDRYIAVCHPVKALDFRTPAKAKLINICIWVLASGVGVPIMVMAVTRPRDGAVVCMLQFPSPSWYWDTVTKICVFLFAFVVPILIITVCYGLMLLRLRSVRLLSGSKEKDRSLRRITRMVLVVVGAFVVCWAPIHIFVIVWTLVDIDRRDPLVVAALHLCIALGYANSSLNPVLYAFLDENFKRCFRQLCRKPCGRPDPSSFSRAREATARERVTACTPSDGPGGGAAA

| SMILES | Ki (Mu-type opioid receptor [6]) | Ki [7] | Ratio Ki (Homo sapiens) | EC50 (Mu-type opioid receptor [8]) | Emax (Mu-type opioid receptor [8]) | Activity (Mus musculus [9]) | ED50 (Mus musculus [9]) | Activity (Mus musculus [10]) | Activity (Mus musculus [11]) | Activity (Mus musculus [12]) | MPE (Mus musculus [13]) | MPE (Mus musculus [14]) | Activity (Mus musculus [15]) | Activity (Mus musculus [16]) | Activity (Mus musculus [17]) | Activity (Mus musculus [18]) | Activity (Mus musculus [19]) | Activity (Mus musculus [20]) | further results |
| --- | --- | --- | --- | --- | --- | --- | --- | --- | --- | --- | --- | --- | --- | --- | --- | --- | --- | --- | --- |
| NC(=O)[C@H](Cc1ccccc1)NC(=O)[C@H](Cc1c[nH]c2ccccc12)NC(=O)[C@@H]1CCCN1C(=O)[C@@H](N)Cc1ccc(O)cc1 [ENDOMORPHIN-1] |  |  |  |  |  |  |  |  |  |  |  |  |  |  |  |  |  |  | MPE (Mus musculus [1]): 52.1%; Activity (Mus musculus [2]): inactive; Activity (Mus musculus [3]): inactive; Activity (Mus musculus [4]): inactive; Activity (Mus musculus [5]): inactive |
| C=C(C(N)=O)[C@H](NC(=O)[C@H](Cc1c[nH]c2ccccc12)NC(=O)[C@@H]1CCCN1C(=O)[C@@H](N)Cc1ccc(O)cc1)c1cccs1 | 0.565 nM | 12000 nM | 21300 | 0.0629 nM | 98.2% | Dose-dependent effect | 0.00207 µmol/kg | tde | inactive | Dose-dependent effect | 86.6% | 25% | inactive | Active | Dose-dependent effect | Dose-dependent effect | inactive | inactive |  |
| C=C(C(N)=O)[C@H](NC(=O)[C@H](Cc1c[nH]c2ccccc12)NC(=O)[C@@H]1CCCN1C(=O)[C@@H](N)Cc1ccc(O)cc1)c1ccsc1 | 0.515 nM | 13300 nM | 25800 | 0.0643 nM | 97% | Dose-dependent effect | 0.00223 µmol/kg | tde | inactive | Dose-dependent effect | 89.8% | 25% | inactive | Active | Dose-dependent effect | Dose-dependent effect | inactive | inactive |  |
